From patent US20160030407A1, “Method of Treating Inflammatory Lung Disease” (priority 2010, published 2016)

How the values were obtained:
[1] = Plasma toxicokinetics after single i.v. bolus; format: in vivo, Sprague-Dawley rats; details: for Concentration in rat plasma: Anatabine 0.1 mg/kg dose group, individual rats; for Avg. Conc. (Combined Male and Female) / Avg. Conc. (Male or Female): Rat Plasma; for half-life: Sprague-Dawley, iv
Description: Six rats (3 males and 3 females) were dosed per dose group. […] Plasma and brain homogenates were stored at −80° C. until analysis.
An additional 48 rats (24 males and 24 females) received a single intravenous dose via the tail vein at the same doses as mentioned above. At 30 and 360 minutes post administration, 6 rats (3 males and 3 females) per dose group, per time point were euthanized, bled via cardiac puncture, and perfused, and brains were collected. The brains were homogenized. Blood was spun, and plasma was collected. Plasma and brain homogenate were stored at −80° C.
Four aliquots of each dose level formulation were collected and stored at −80° C. The test compound, corresponding dose level, number of animals, and sample collection times for Phase I of the study are shown in Table 3. The test compound, corresponding dose level, number of animals, and sample collection times for Phase II of the study are shown in Table 4. The physical signs of each animal were monitored following administration of the test compound.
The animals were weighed prior to dosing and received a single i.v. dose of either test compound at a volume of 5 mL/kg. Blood was collected via the venus plexus (retro-orbital) into tubes containing (K2) EDTA. No more than 0.5 mL was collected per time point. […] The brain was removed, weighed, homogenized in sterile 0.9% saline at a volume equal to its weight, and stored at −80° C.
Plasma was separated according to the instructions for MICROTAINER® brand collection tubes (3 minutes, 2000×g). Plasma was decanted into microfuge tubes and stored at −80° C. Remaining test compound was stored at −80° C.
The amount of the test agent in the supernatant was determined by liquid chromatography tandem mass spectrometry (LC/MS/MS).
Analysis. Samples were analyzed by LC/MS/MS using an Agilent 6410 mass spectrometer coupled with an Agilent 1200 high pressure liquid chromatography (HPLC) and a CTC PAL chilled autosampler, all controlled by MassHunter software (Agilent). After separation on a hydrophilic interaction liquid chromatography (HILIC) HPLC column (Sepax) using an acetonitrile-ammonium acetate/acetic acid gradient system, peaks were analyzed by mass spectrometry (MS) using ESI ionization in multiple reaction monitoring (MRM) mode. MassHunter software was used to calculate the concentration of the test compounds in samples from the peak area using the appropriate calibration curves.

BACE-1 = BACE-1 protein expression in SHSY cells (Western blot); format: cell-based, human; details: 24 hours, corrected for actin
[2] = rat plasma, single i.v. 0.1 mg/kg, female
[3] = rat plasma, single i.v. 0.75 mg/kg, male
[4] = rat plasma, single i.v. 0.1 mg/kg, M + F
[5] = rat plasma, single i.v. 0.1 mg/kg, male
[6] = rat plasma, single i.v. 0.75 mg/kg, M + F
[7] = rat plasma, single i.v. 0.75 mg/kg, female
[8] = rat plasma, single i.v. 1.0 mg/kg, M + F
[9] = rat plasma, single i.v. 1.0 mg/kg, female
[10] = rat plasma, single i.v. 1.0 mg/kg, male

Structure (SMILES): C1=CCC(c2cccnc2)NC1 (racemic) [Anatabine, 1,2,3,6-tetrahydro-[2,3′]bipyridinyl]
- Concentration in rat plasma ([1]; rat plasma, time point 4 hr): <LLQ
- Concentration in rat plasma ([1]; rat plasma, time point 6 hr): <LLQ
- Concentration in rat plasma ([1]; rat plasma, time point 8 hr): <LLQ
- Concentration in rat plasma ([1]; rat plasma, time point 24 hr): <LLQ
- Avg. Conc. (Combined Male and Female) ([1]; Anatabine 0.1 mg/kg, 8 hr): <LLQ
- Avg. Conc. (Combined Male and Female) ([1]; Anatabine 0.1 mg/kg, 24 hr): <LLQ
- Avg. Conc. (Male or Female) ([1]; Anatabine 0.1 mg/kg, female, 8 hr): <LLQ
- Avg. Conc. (Male or Female) ([1]; Anatabine 0.1 mg/kg, female, 24 hr): <LLQ
- Avg. Conc. (Male or Female) ([1]; Anatabine 0.1 mg/kg, male, 6 hr (1st line)): <LLQ
- Avg. Conc. (Male or Female) ([1]; Anatabine 0.1 mg/kg, male, 8 hr): <LLQ
- Avg. Conc. (Male or Female) ([1]; Anatabine 0.1 mg/kg, male, 24 hr): <LLQ
- Avg. Conc. (Combined Male and Female) ([1]; Anatabine 0.75 mg/kg, 24 hr): <LLQ
- Avg. Conc. (Male or Female) ([1]; Anatabine 0.75 mg/kg, female, 24 hr): <LLQ
- Avg. Conc. (Male or Female) ([1]; Anatabine 0.75 mg/kg, male, 24 hr): <LLQ
- Avg. Conc. (Combined Male and Female) ([1]; Anatabine 1.0 mg/kg, 24 hr): <LLQ
- Avg. Conc. (Male or Female) ([1]; Anatabine 1.0 mg/kg, female, 24 hr): <LLQ
- Avg. Conc. (Male or Female) ([1]; Anatabine 1.0 mg/kg, male, 24 hr): <LLQ
- half-life [1, 2]: 1.64 ± 0.59 h
- half-life [1, 3]: 1.64 ± 0.12 h
- half-life ([1]; both sexes, rat plasma, single i.v. 0.75 mg/kg, M + F): 1.68 ± 0.09 h
- half-life ([1]; both sexes, rat plasma, single i.v. 1.0 mg/kg, M + F): 1.64 ± 0.25 h
- apparent volume of distribution (VD) compared with nicotine ([1]; rat plasma, single i.v.): significantly greater than that of nicotine
- AUC0→∞ [1, 4]: 35.0 ± 11.6 ng·h/mL
- VD [1, 4]: 6.08 ± 0.45 L/kg
- t1/2 [1, 4]: 1.44 ± 0.48 h
- AUC0→∞ [1, 2]: 37.9 ± 15.9 ng·h/mL
- VD [1, 2]: 6.52 ± 0.66 L/kg
- AUC0→∞ [1, 5]: 32.0 ± 7.7 ng·h/mL
- VD [1, 5]: 5.29 ± 0.49 L/kg
- t1/2 [1, 5]: 1.25 ± 0.32 h
- AUC0→∞ [1, 6]: 504.4 ± 63.5 ng·h/mL
- VD [1, 6]: 3.33 ± 0.13 L/kg
- AUC0→∞ [1, 7]: 544.5 ± 62.7 ng·h/mL
- VD [1, 7]: 3.19 ± 0.15 L/kg
- t1/2 [1, 7]: 1.73 ± 0.03 h
- AUC0→∞ [1, 3]: 464.4 ± 36.2 ng·h/mL
- VD [1, 3]: 3.48 ± 0.18 L/kg
- AUC0→∞ [1, 8]: 710.07 ± 88.4 ng·h/mL
- VD [1, 8]: 3.08 ± 0.16 L/kg
- AUC0→∞ [1, 9]: 788.9 ng·h/mL
- VD [1, 9]: 3.16 ± 0.15 L/kg
- t1/2 ([1]; rat plasma, single i.v. 1.0 mg/kg, female, 1 mg/kg): 1.84 h
- AUC0→∞ [1, 10]: 631.3 ng·h/mL
- VD [1, 10]: 3.01 ± 0.12 L/kg
- t1/2 ([1]; rat plasma, single i.v. 1.0 mg/kg, male, 1 mg/kg): 1.44 h
- plasma concentration between approximately 6 and 8 hours ([1]; rat, single i.v., nicotine 0.4 mg/kg, anatabine 0.1 mg/kg): below the limits of quantitation
- BACE-1 protein expression (BACE-1): reduced BACE expression
